One series relates to stem cells. Conditions: room temperature; Pal et al., 2012; Tunçer et al., 2018; cited from earlier work.
A further series concerns hMSC cells. As to the kind of experiment: total number of hMSC cells (CaSy cell counter) after cryopreservation, thawing and two weeks of cultivation. As to conditions: Example 1, cryopreservation medium in α-MEM. Type of series: cell-based, human. The procedure: FIG. 1 represents the total number of hMSC cells measured using CaSy cell counter (OMNI Life Science GmbH) after two weeks of cultivation. The data are shown as averages and the standard deviation is shown as an error bar.
Mesenchymal stem cell cultures were cryopreserved. The method of cryopreservation consists of the addition of a cryopreservation medium to the sample and the subsequent […] cryopreservation through a slow freeze at a rate of 1° C./min, for preservation of the sample at low temperatures (−80 C to −196C). The cryopreserved stem cell culture is revived after preservation by thawing in a water bath at 37° C. for 2 minutes and the cryopreservation medium is subsequently washed away from the cellular suspension by centrifugation. The cells are then seeded in a cultivation bottle and cultivated for two weeks.
For cryopreservation, 4 different combinations of cryoprotective medium containing hyaluronic acid with MW 1,500,000 g/mol in two concentrations of 0.1 and 0.2% (w/v) with an addition of 5 or 3% DMSO (v/v) dissolved in a standard α-MEM medium were used. The composition containing 5, 3 or 10% (v/v) DMSO in the medium served as a cryopreservation control.
The mesenchymal stem cells hMSC cultures were cryopreserved. […]

Results on one molecule are retold here after patent publication US20250215400A1, “CRYOPRESERVATION MEDIUM COMPRISING HYALURONIC ACID, USE THEREOF AND METHOD OF CRYOPRESERVATION” (CONTIPRO A.S., priority 2022, published 2025).

As to `C[S+](C)[O-]` [DMSO, dimethyl sulfoxide], the “concentration range at which an effect on viability, morphology, cell adhesion and differentiation was observed” value in the series with stem cells is 0.1-1 % (v/v). Moreover, the “stem cell survival and proliferation efficiency” value with hMSC cells is “lower MSCs survival and proliferation efficiency”.
